Measured values reported in PubChem BioAssay (NCI).
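Following 48 hours of exposure in 96-well plates, responses at five concentrations were used to interpolate endpoints linearly. GI50: concentration for 50% inhibition of growth. TGI marks complete inhibition of growth.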

Experiments:
Assay in all cases: NCI anticancer screen, dose series, 48 h
HCC-2998 colon = test system: HCC-2998 colon
HCT-116 colon = test system: HCT-116 colon
HOP-62 NSCLC = test system: HOP-62 NSCLC
HS 578T breast = test system: HS 578T breast
LOX IMVI melanoma = test system: LOX IMVI melanoma
M14 melanoma = test system: M14 melanoma
NCI-H460 lung = test system: NCI-H460 lung
NCI-H522 lung = test system: NCI-H522 lung
OVCAR-3 ovarian = test system: OVCAR-3 ovarian
SK-MEL-2 melanoma = test system: SK-MEL-2 melanoma

Row | SMILES | GI50 (HCC-2998 colon) | TGI (HCC-2998 colon) | GI50 (HCT-116 colon) | TGI (HCT-116 colon) | GI50 (HOP-62 NSCLC) | TGI (HOP-62 NSCLC) | GI50 (HS 578T breast) | TGI (HS 578T breast) | GI50 (LOX IMVI melanoma) | TGI (LOX IMVI melanoma) | GI50 (M14 melanoma) | TGI (M14 melanoma) | GI50 (NCI-H460 lung) | TGI (NCI-H460 lung) | GI50 (NCI-H522 lung) | TGI (NCI-H522 lung) | GI50 (OVCAR-3 ovarian) | TGI (OVCAR-3 ovarian) | GI50 (SK-MEL-2 melanoma) | TGI (SK-MEL-2 melanoma)
1 | C[C@@H]1Cc2c(ccc3[nH]ncc23)[C@@H](c2ccc(NC3CN(CCCF)C3)cn2)N1CC(F)(F)F | 17.2 µM | 33.5 µM | 14.5 µM | 28.2 µM | 15.3 µM | 34.8 µM | 15 µM | 41 µM | 16.1 µM | 31.4 µM | 16.5 µM | 32.2 µM | 18.8 µM | 37.8 µM | 20.2 µM | 45.7 µM | 20.3 µM | 57.8 µM | 19 µM | 42.9 µM
2 | COc1ccc2c(c1)C=CC1C2CC[C@]2(C)C(NC(=O)/C=C/c3ccc(O)c(O)c3)CCC12 (stereo not given in full) | 14.4 µM | 34.6 µM | 4.49 µM | 17.4 µM | 1.21 µM | 7.59 µM | 27.2 µM | > 100 µM | 6.45 µM | 20.2 µM | 13.7 µM | 30.8 µM | 3.93 µM | 14.4 µM | 3.41 µM | 10.9 µM | 7.19 µM | 27.8 µM | 25.7 µM | 62.1 µM
3 | CCOC(=O)N(O)c1ccc(/C=C/c2ccccc2)cc1 | 7.03 µM | 21.3 µM | 0.407 µM | 10.5 µM | 7.45 µM | > 59 µM | 29.4 µM | > 100 µM | 7.22 µM | 20.6 µM | 7.17 µM | 26.8 µM | 0.913 µM | 15.6 µM | 7 µM | 28 µM | 3.16 µM | 15.7 µM | 8.62 µM | 28.6 µM
4 | Cc1c(C2CCSc3ccccc3N2)sc2ccccc12 (stereo not given) |  | > 100 µM |  | > 100 µM |  | > 100 µM |  | > 100 µM |  | > 100 µM |  | > 100 µM |  | > 100 µM |  | > 100 µM |  | > 100 µM |  | > 100 µM
5 | C=C(CN1CCN(c2ccc(F)c(Cl)c2)CC1)c1ccc(C(=O)Nc2ccccc2N)cc1 | 9.47 µM | 24.9 µM | 3.08 µM | 10.3 µM | 3.09 µM | 16.4 µM | 7.39 µM | > 100 µM | 3.47 µM | 12.5 µM | 2.65 µM | 11.6 µM | 5.08 µM | > 100 µM | 1.8 µM | 5.33 µM | 6.18 µM | 58.9 µM | 6.12 µM | 64 µM
